The values that follow come from PubChem BioAssay (NCI).

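Assay format: 96-well plates, 48-hour exposure. At the TGI there is no net growth.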 Bounds are passed on as bounds.

What all share (assay): inhibition of tumour cell growth, NCI panel, 48 h
Assay [1] concerns CCRF-CEM leukemia.
Assay [2] deals with DU-145 prostate.
In assay [3] the test system is EKVX NSCLC.
In assay [4] the test system is HCC-2998 colon.
Assay [5] deals with HL-60(TB) leukemia.
The test system of assay [6] is HOP-92 NSCLC.
For assay [7], the system named is KM12 colon.
In assay [8] the test system is MDA-MB-231 breast.
The subject of assay [9] is NCI-H23 lung.
Assay [10] concerns NCI-H460 lung.
Assay [11] relates to NCI-H522 lung.
Assay [12] deals with NCI/ADR-RES ovarian.
Assay [13] relates to SK-MEL-28 melanoma.
In assay [14] the test system is SK-OV-3 ovarian.
Assay [15] has as its system SNB-75 CNS.
The test system of assay [16] is U251 CNS.

Consider `O=[N+]([O-])c1ccc2nc(Nc3ccccc3)c(Nc3ccccc3)nc2c1`, for which the TGI in [1] was over 100 µM; in assay [2] it was 4.6 µM; in assay [3], 6.22 µM; in assay [4] it was 2.65 µM; in assay [5] it was 40.4 µM; in assay [6], 4.88 µM. For the same compound, the TGI in [7] was 2.78 µM; in [8], 2.64 µM; in assay [9], 4.26 µM; in assay [10] it was 1.61 µM; in [11] it was 1.33 µM; in assay [12], 6 µM. Besides, the TGI in [13] came to 8.4 µM; in assay [14], 2.88 µM; in assay [15], 5.25 µM; in assay [16], 1.99 µM.

`N#CSC#CCCC#CSC#N`: the TGI in assay [1] is over 100 µM; in assay [2], 28.3 µM; in [3], 41.5 µM; in [4], 34.3 µM; in assay [5] it was over 100 µM; in [6] it was 39.5 µM. The TGI in [7] amounted to 34.9 µM; in [8], 42 µM; in [9], 42.1 µM; in assay [10] it was 48.4 µM; in [11], 13.6 µM; in assay [12] it was 74.9 µM. Besides, the TGI was found to be 82 µM in [13], 29.7 µM in [14] and 30.5 µM in [16].

For the compound `O=C1C(Br)=C(Br)C(=O)c2ccc(=O)ccc21`, the TGI in [1] was 17 µM; in assay [2], over 100 µM; in [3] it was over 90.9 µM; in assay [4], over 100 µM; in assay [5], 13.7 µM; in assay [6] it was 34.8 µM. In addition, the TGI is over 100 µM in assay [7]; 35.9 µM in [8]; 43.1 µM in assay [9]; 67.6 µM in assay [10]; 7.25 µM in assay [11]; 53.3 µM in assay [12]. Moreover, the TGI in assay [13] is 52 µM; in [14], over 100 µM; in assay [15], over 100 µM; in assay [16] it was 61.4 µM.

For `C[C@]12[C@@H]3CC[C@H]1[C@@H](O)C(=O)N2CC3`, the TGI in assay [1], in [2], in assay [3], in assay [4], in assay [5] and in assay [6] was over 100 µM in each case. Also, the TGI in [7], in [8], in [9], in assay [10], in assay [11] and in [12] was over 100 µM each time. In addition, the TGI in assay [13], in assay [14], in [15] and in assay [16] was over 100 µM in each case.

For the compound `O=C1c2ccccc2C(=O)c2c(/C=C\N3CCCCC3)ccnc21`, the TGI is 47.6 µM in assay [1]; 2.96 µM in assay [2]; 31.2 µM in [3]; 11.9 µM in assay [4]; 27.8 µM in assay [5]; 32.1 µM in [6]. Moreover, the TGI in assay [7] is 18 µM; in [8], 73.3 µM; in assay [9], 1.31 µM; in assay [10] it was 4.91 µM; in [11], 13.3 µM; in [12], over 95.4 µM. Further, the TGI is 2.96 µM in assay [13], 50.9 µM in assay [14], 7.2 µM in [15] and 14.5 µM in assay [16].

As to `CC(N)/C(N)=N/O` (configuration not stated), the TGI in assay [1], in assay [2], in assay [3], in assay [4], in [5] and in assay [6] was over 100 µM throughout. For the same compound, the TGI in [7], in [8], in assay [9], in assay [10], in [11] and in [12] was over 100 µM each time. For the same compound, the TGI in assay [13], in [14], in [15] and in assay [16] was over 100 µM each time.

Turning to `NC(Cc1ccccc1)C(=O)NC(Cc1ccccc1)NC(=O)C(Cc1c[nH]c2ccccc12)C(=O)O` (configuration not stated), the TGI in assay [1], in assay [2], in assay [3], in [4], in assay [5] and in assay [6] was over 100 µM throughout. The TGI in assay [7], in assay [8], in assay [9], in assay [10], in [11] and in assay [12] was over 100 µM each time. The TGI in assay [13], in [14], in [15] and in assay [16] was over 100 µM each time.

For the compound `CCOC(=O)CCCSCCCC(=O)CCCSCCCC(=O)OCC`, the TGI in assay [1], in assay [2], in assay [3], in assay [4], in [5] and in assay [6] was over 100 µM in each case. For the same compound, the TGI in assay [7], in [8], in assay [9], in assay [10], in [11] and in assay [12] was over 100 µM throughout. Also, the TGI in [13], in assay [14], in [15] and in [16] was over 100 µM throughout.
